System: KRAS PDC multicell spheroid viability
Assay: Anticancer human tumor 825966-067-R-J1-PDC patient-derived colon carcinoma cell line growth inhibition [KRAS2]
Details: for viability, T/C: stronger effect = lower value
Outline: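 KRAS-mutant tumor cells were grown as spheroids with HUVEC endothelial cells and human MSCs as stroma. Targeted agents were tested alone and with KRAS pathway inhibitors. Doses started at or near clinical Cmax, or 10 microM, descending half-log.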

[1] = curve of first compound, second compound 0.1 µM
[2] = curve of first compound, second compound 0.316 µM
[3] = curve of first compound, second compound 1 µM
[4] = curve of first compound, second compound 3.16 µM
[5] = curve of first compound, second compound 10 µM
[6] = second compound 0.1 µM, first compound 0.0316 µM
[7] = second compound 0.1 µM, first compound 0.1 µM
[8] = second compound 0.1 µM, first compound 0.316 µM
[9] = second compound 0.1 µM, first compound 1 µM
[10] = second compound 0.1 µM, first compound 3.16 µM
[11] = second compound 0.1 µM, first compound 10 µM
[12] = second compound 0.316 µM, first compound 0.0316 µM
[13] = second compound 0.316 µM, first compound 0.1 µM
[14] = second compound 0.316 µM, first compound 0.316 µM
[15] = second compound 0.316 µM, first compound 1 µM
[16] = second compound 0.316 µM, first compound 3.16 µM
[17] = second compound 0.316 µM, first compound 10 µM
[18] = second compound 1 µM, first compound 0.0316 µM
[19] = second compound 1 µM, first compound 0.1 µM
[20] = second compound 1 µM, first compound 0.316 µM
[21] = second compound 1 µM, first compound 1 µM
[22] = second compound 1 µM, first compound 3.16 µM
[23] = second compound 1 µM, first compound 10 µM
[24] = second compound 3.16 µM, first compound 0.0316 µM
[25] = second compound 3.16 µM, first compound 0.1 µM
[26] = second compound 3.16 µM, first compound 0.316 µM
[27] = second compound 3.16 µM, first compound 1 µM
[28] = second compound 3.16 µM, first compound 3.16 µM
[29] = second compound 3.16 µM, first compound 10 µM
[30] = second compound 10 µM, first compound 0.0316 µM
[31] = second compound 10 µM, first compound 0.1 µM
[32] = second compound 10 µM, first compound 0.316 µM
[33] = second compound 10 µM, first compound 1 µM
[34] = second compound 10 µM, first compound 3.16 µM
[35] = second compound 10 µM, first compound 10 µM
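Further: spheroids exposed to compounds for 7 days.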
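Wherever viability, T/C is given: 100% = DMSO vehicle control viability.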

| SMILES | IC50 [1] | IC50 [2] | IC50 [3] | IC50 [4] | IC50 [5] | viability, T/C [6] | viability, T/C [7] | viability, T/C [8] | viability, T/C [9] | viability, T/C [10] | viability, T/C [11] | viability, T/C [12] | viability, T/C [13] | viability, T/C [14] | viability, T/C [15] | viability, T/C [16] | viability, T/C [17] | viability, T/C [18] | viability, T/C [19] | viability, T/C [20] | further results |
| --- | --- | --- | --- | --- | --- | --- | --- | --- | --- | --- | --- | --- | --- | --- | --- | --- | --- | --- | --- | --- | --- |
| CC1OCC2(CCN(c3cnc(Sc4ccnc(N)c4Cl)c(N)n3)CC2)C1N (stereo not given) + C=CC(=O)N1CCN(c2nc(=O)n(-c3c(C)ccnc3C(C)C)c3nc(-c4c(O)cccc4F)c(F)cc23)C(C)C1 | 9.58 µM | 6.95 µM | 7.78 µM | 6.05 µM | 4.49 µM | 78.4% | 66.8% | 98.4% | 85% | 94.1% | 48.6% | 82.8% | 96.1% | 79.4% | 78.3% | 94.1% | 33.3% | 82.1% | 69.3% | 74.8% | viability, T/C [21]: 75.5%; viability, T/C [22]: 76.3%; viability, T/C [23]: 43.1%; viability, T/C [24]: 93.5%; viability, T/C [25]: 70.1%; viability, T/C [26]: 83.2%; viability, T/C [27]: 81%; viability, T/C [28]: 90.4%; viability, T/C [29]: 23.9%; viability, T/C [30]: 80.5%; viability, T/C [31]: 74.3%; viability, T/C [32]: 106%; viability, T/C [33]: 92.9%; viability, T/C [34]: 70.1%; viability, T/C [35]: 4.36% |
| CC1(C)CCC(CN2CCN(c3ccc(C(=O)NS(=O)(=O)c4ccc(NCC5CCOCC5)c([N+](=O)[O-])c4)c(Oc4cnc5[nH]ccc5c4)c3)CC2)=C(c2ccc(Cl)cc2)C1 |  |  |  |  |  |  |  |  |  |  |  |  |  |  |  |  |  |  |  |  | viability, T/C (compound 0.1 µM): 90.1% [middle of 5 runs]; viability, T/C (compound 0.316 µM): 102% [middle of 5 runs]; viability, T/C (compound 3.16 µM): 29.4% [middle of 5 runs]; viability, T/C (compound 10 µM): 7.19% [middle of 5 runs]; IC50 (curve of compound): 2.03 µM [middle of 5 runs] |
| COc1cc2nccc(Oc3ccc(NC(=O)C4(C(=O)Nc5ccc(F)cc5)CC4)cc3)c2cc1OC + C=CC(=O)N1CCN(c2nc(=O)n(-c3c(C)ccnc3C(C)C)c3nc(-c4c(O)cccc4F)c(F)cc23)C(C)C1 | 1.73 µM | 1.59 µM | 1.69 µM | 1.52 µM | 0.461 µM | 108% | 111% | 81.8% | 88.8% | 6.77% | 8.36% | 91.1% | 122% | 71.7% | 78.3% | 6.54% | 10.2% | 111% | 118% | 85.8% | viability, T/C [21]: 87.5%; viability, T/C [22]: 2.49%; viability, T/C [23]: 8.75%; viability, T/C [24]: 88.4%; viability, T/C [25]: 77%; viability, T/C [26]: 90%; viability, T/C [27]: 76.1%; viability, T/C [28]: 2.99%; viability, T/C [29]: 6.07%; viability, T/C [30]: 97.4%; viability, T/C [31]: 78.5%; viability, T/C [32]: 56.1%; viability, T/C [33]: 41.7%; viability, T/C [34]: 2%; viability, T/C [35]: 2.5% |

Source: PubChem BioAssay AID1963865 (Molecular Pharmacology Branch, DTP, NCI, 2024)
